Literature values, collected in patent US20100280975A1, “SYSTEMS FOR CLINICAL TRIALS” (WisTa Laboratories Ltd., priority 2007, published 2010).

Details: placebo arm improved 3.2 units from baseline ADAS-cog; cited from earlier work

For `COCCOC(=O)C1=C(C)NC(C)=C(C(=O)OC(C)C)C1c1cccc(C#N)c1Cl` (stereo not shown) [MEM-1003], which “efficacy in clinical trial” value is on record?
Its value is “failed to demonstrate efficacy”.
